Data as given in patent publication US20110293757A1, “Compositions Comprising Tea Tree Oil and Methods for the Prevention and Treatment of Cancer” (priority 2008, published 2011).

How the values were obtained:
AE17 mesothelioma = assay: Topical treatment of subcutaneous murine AE17 mesothelioma tumours, tumour area by micro-callipers; type: in vivo, C57BL/6J mice; conditions: 50 ul topically; 4% terpinen-4-ol, 2% γ-terpinene, 1% α-terpinene, 0.5% 1,8-cineole, 0.5% p-cymene; vs untreated controls
Excerpt: The models used, murine AE17 mesothelioma and murine B16 melanoma tumour, both involve the implantation of tumour cell lines subcutaneously onto the rear flank of fully immuno-competent mice. Palpable tumours arise within 3-14 days.
Female fully immuno-competent C57BL/6J mice between 6-8 weeks of ages are obtained from the Animal Resources Centre (Perth, Australia) and maintained under SPF (specified pathogen free) housing conditions (Animal Care Unit, University of Western Australia).
AE17 cells were derived from the peritoneal cavity of C57BL/6J mice injected with asbestos fibres (Jackaman, 2003) and (Davis, 1992) and are injected subcutaneously at a concentration of 1×10^7 per mouse (Needham, 2006). […]

[1] = tested on: B16 melanoma, UV induced squamous carcinoma and Lewis lung carcinoma; conditions: 18 μg, 3 topical treatments (Ogbourne, 2004); cited from earlier work
skin = conditions: cited from earlier work

Row | Structure (SMILES) | AE17 tumour growth, components applied singly with DMSO (AE17 mesothelioma) | tumour regression [1] | skin reaction on topical application (skin)
1 | CC12CCC(CC1)C(C)(C)O2 [1,8-cineole] | lack of efficacy | – | –
2 | C/C=C(/C)C(=O)O[C@H]1C(C)=C[C@]23C(=O)[C@@H](C=C(CO)[C@@H](O)[C@]12O)[C@H]1[C@@H](C[C@H]3C)C1(C)C [3-Ingenyl-Angelate] | – | induces tumour regression with just 3 topical treatments | elicits skin irritation
3 | CC(C)Cn1cnc2c(N)nc3ccccc3c21 [Imiquimod] | – | – | redness, drying and scabbing
4 | Cc1ccc(C(C)C)cc1 [p-cymene] | lack of efficacy | – | –
5 | CC1=CCC(O)(C(C)C)CC1 (centres unmarked) [terpinen-4-ol] | lack of efficacy | – | –
6 | CC1=CC=C(C(C)C)CC1 [α-terpinene] | lack of efficacy | – | –
7 | CC1=CCC(C(C)C)=CC1 [γ-terpinene] | lack of efficacy | – | –
